Key:
FGF1, 2, 3, or 4 = conditions: comparison with lenvatinib (nonselective inhibitor of FGFR); cited from earlier work
[1] = tested on: GBM biopsy specimen (SRA4, SRC1, SRC2, SRB2, and SRA5) glioblastoma stem cells; experiment: Cell survival to TTFields in the presence of FGFR1 inhibitor; format: cell-based; conditions: 5 GBM biopsy specimen, 3 days of TTFields 200 kHz and PMGB 125 nM
Experimental: (§1) This study focuses on the involvement of FGFR1 in the control of sensitivity to TTFields. The study was performed on several glioblastoma stem cells (GSC) fully characterized in vitro and in vivo that were obtained from clinical trial STEMRI (NCT01872221) at Institut Claudius Regaud. The inventors wish to thank Institut Claudius Regaud for providing the glioblastoma stem cells used in these experiments.
The mechanism of radiation to induce cell death can be a result of DNA damage which leads to apoptosis, because it is known that TTFields also generate DNA damage and reduce the DNA repair mechanism. Radio sensitization is […] following addition of FGFR inhibitor. There is increased sensitivity to TTFields when there is concomitant treatment with FGFR inhibition which indicates a synergistic result of increased secretion of FGF family members in serum and conditioned media following TTFields application, thus explaining the reduced sensitivity of cells to TTFields.

[2] = tested on: FGFR1 mRNA expression in SRC1 and SRC2 glioblastoma stem cells; experiment: FGFR1 mRNA expression by qPCR in glioblastoma stem cells treated with TTFields and FGFR inhibitor; format: cell-based; conditions: PMGB 125 nM concomitantly with TTFields 200 kHz for 3 days
Experimental: FGFR1 mRNA level was quantified by qPCR in SRC1 and SRC2 glioblastoma stem cells after 3 days treatment with TTFields (200 kHz). Results are expressed in Fold change of FGFR1 expression in cells treated with TTFields compared to FGFR1 expression in non treated cells with TTFields.
Pemigatininb (PMGB) is an FGFR inhibitor. SRC1 and SRC2 were treated concomitantly with PMGB (125 nM) and TTFields (200 kHz) for 3 days. Results are expressed in Fold change of FGFR1 expression in cells treated with TTFields compared to FGFR1 expression in control cells.
as §1

Q: For `CCN1C(=O)N(c2c(F)c(OC)cc(OC)c2F)Cc2cnc3[nH]c(CN4CCOCC4)cc3c21` [Pemigatinib], which “IC50 against at least one of FGF1, 2, 3, or 4, compared with lenvatinib” value (FGF1, 2, 3, or 4) is on record?
A: significantly lower IC50

Q: What about the “Cytotoxic effect / cell survival” value [1] of the same compound?
A: cytotoxic effect

Q: And the “FGFR1 mRNA expression induced by TTFields (fold change vs control cells)” value ([2]; listed as PMGB)?
A: inhibited

Q: What about the “FGFR1 mRNA expression induced by TTFields (fold change vs control cells)” value ([2]; listed as pemigatinib) of the same compound?
A: inhibition

Reference: patent US20230405315A1, “Compositions And Methods For Treating With A Combination Of Alternating Electric Fields And FGF Inhibitors” (NOVOCURE GMBH, priority 2022, published 2023)
